# In patent US6448246B1 (dated 2002):
structure (smiles),measurement,value
O=C(NCc1ccccc1)C1C=Nc2ccccc2S1 (stereo not shown),melting point,160 to 162 °C
